Laboratory results published in patent publication US20260219274A1, “POLYOL SWEETNERS AND CARDIOVASCULAR AND THROMBOTIC EVENT RISK” (THE CLEVELAND CLINIC FOUNDATION, priority 2023, published 2026).

Experiments:
clinical = details: human, in vivo
Method: This single center trial was approved by the Cleveland Clinic Institutional Review Board (clinicaltrials.gov identifier NCT04731363). Following subject consent (nonsmokers without CVD, hypertension, or diabetes), blood was drawn after overnight fast and 30 min following consumption of water containing 30 g of […] glucose (n=10, 30.1±11 years of age, 40% male), or erythritol (n=10, 30.5±8 years of age, 50% male), a quantity commonly found in erythritol-sweetened foods and the daily intake of some subjects based on 2013-2014 National Health and Nutrition Examination Survey (NHANES) data and FDA filings.(4,5).
Following erythritol consumption, postprandial circulating erythritol levels (assessed using stable-isotope-dilution liquid-chromatography tandem mass spectrometry (LC/MS/MS)3) were >1000-fold increased compared to baseline levels (median[inter quartile range], 6480[5930-7300]μM versus 3.75[3.35-3.87]μM, P<0.0001). In contrast, circulating erythritol levels remained similar before versus after glucose consumption (3.0[2.6-4.0]μM versus 2.9[2.7-3.8]μM, P=0.87; glucose levels before versus after 86.5(81.8-93.0) versus 127.0(122.3-132.3), P=0.002). […] In contrast, glucose consumption had no effect on platelet aggregation.

[1] = tested on: patients undergoing elective diagnostic coronary angiography (European cohort); assay: European validation cohort: LC/MS/MS serum erythritol vs 3-year MACE; format: in vivo, human
Description: In a third clinical study (the European Cohort, n=833), serum erythritol levels were quantified by stable isotope dilution LC/MS/MS in samples from sequential patients undergoing elective diagnostic coronary angiography due to (suspected) chronic coronary syndromes enrolled in the observational LipidCardio study between 2016-2018 at the Charité University Hospital, Campus Benjamin Franklin (registered under German Clinical Trial Register (drks.de); identifier: DRKS00020915) with a follow-up for 3 years^49. As a quaternary referral center, Charité University Hospital is centrally located in Europe, and subjects enrolled in the LipidCardio study have large geographic catchment, with residences throughout Europe. eGFR was calculated via CKD-MDRD equation^48. For the European validation cohort, there was a total of 833 samples available with MACE outcome data. All samples were used for the erythritol LC/MS/MS measurement.
Stable-isotope-dilution LC/MS/MS was used for quantification of erythritol, threitol, and 1,5-AHG in human and mouse plasma. Ice cold methanol (800 μL) and internal standards (D6-erythitol and ^13C6-1,5-AHG) were added to the plasma samples (20 μL), followed by vortexing and centrifuging (21,000×g; 4° C. for 15 min). The clear supernatant (800 μL) was transferred into a clean, labeled glass tubes (Borosilicate glass 12×75 mm) and dried in a speed vacuum concentrator (Speed vac plus, SC210, Thermo Sevant). The dry residue was reconstituted in acetic anhydride (100 μL) and 4-Dimethylaminopyridine (DMAP) in pyridine (100 μL; 1 mg/mL), sealed with safety caps, vortexed and heated (45 min at 80° C.) followed with drying under nitrogen. Dried residues were dissolved in HCl in water (0.1 M; 0.5 mL) and extracted with ethyl acetate (2 mL). Ethyl acetate layer was transferred into a clean glass tubes (Borosilicate glass 12×75 mm) and dried under nitrogen. The dry residue was reconstituted in ammonium formate in a mixture of methanol:water (100 μL; 50:50 v/v with 10 mM ammonium formate), tubes were vortexed and liquid was transferred to glass vials with micro-insets and caped. LC/MS/MS analysis was performed on a chromatographic system consisting of two Shimadzu LC-30 AD pumps (Nexera X2), a CTO 20AC oven operating at 30° C., and a SIL-30 AC-MP autosampler in tandem with a triple quadruple mass spectrometer (8050 series, Shimadzu Scientific Instruments, Inc., Columbia, MD, USA). For chromatographic separation, a Kinetex C18 column (50 mm×2.1 mm; […]) (Cat #00B-4462-AN, Phenomenex, Torrance, CA) was used. […] Electrospray ionization in the positive mode was used with multiple reaction monitoring (MRM) for detection of endogenous and stable isotope labeled internal standards. The following transitions were used: m/z 308.0 [M+4xC2OH2+NH4]^+→231.0 for threitol and erythritol, m/z 314.0 [M+4xC2OH2+NH4]^+→237.0 for D6-erythritol; m/z 360.1 [M+4xC2OH2+NH4]^+→273.3 for 1,5AHG; […] [M+4xC2OH2+NH4]^+→279.3 for ^13C6-1,5-AHG; The following ion source parameters were applied: nebulizing gas flow, 3 l/min; heating gas flow, 10 L/min; interface temperature, 300° C.; desolvation line temperature, 250° C.; heat block temperature, 400° C.; and drying gas flow, 10 L/min. Limit of detection (LOD) and limit of quantification (LOQ) were as follow: threitol:0.048 and 0.160 μM; erythritol: 0.026 and 0.089 μM; 1,5-AHG: […]; respectively. Three quality control samples were run with each batch of samples and inter-batch variations expressed as coefficient of variation (CV) were less than 7% for all analytes monitored. Data were collected and analyzed by LabSolution 5.91 software (Shimadzu).
Continuous variables were summarized as median (25th and 75th percentiles), and categorical variables are presented as %. For group comparisons of patient characteristics, Kruskal-Wallis test was performed for numerical data and Chi-Square test for categorical data. […]

OC[C@@H](O)[C@@H](O)CO [erythritol]
concentration at 30 min (clinical; both sexes): 6480 µM
baseline circulating erythritol levels, median[inter quartile range] (clinical; both): 3.75[3.35-3.87] μM
circulating erythritol levels (clinical; both): 3.0[2.6-4.0] μM
circulating erythritol levels (clinical; both, 30 min): 2.9[2.7-3.8] μM
increase of postprandial circulating erythritol vs baseline (clinical; both, 30 min): > 1000 fold
HR with 95% CI ([1]; 3-year MACE per μM of erythritol, adjusted Cox model): 1.16 (1.05-1.30)
Adjusted HR, 3-year MACE ([1]; erythritol Q2 vs Q1, female): 1.82
Unadjusted HR, 3-year MACE ([1]; erythritol Q2 vs Q1, female): 1.64
Adjusted HR, 3-year MACE ([1]; erythritol Q2 vs Q1, male): 0.98
Unadjusted HR, 3-year MACE ([1]; erythritol Q2 vs Q1, male): 1.22
Adjusted HR, 3-year MACE ([1]; erythritol Q3 vs Q1, female): 1.66
Unadjusted HR, 3-year MACE ([1]; erythritol Q3 vs Q1, female): 1.67
Adjusted HR, 3-year MACE ([1]; erythritol Q3 vs Q1, male): 0.93
Unadjusted HR, 3-year MACE ([1]; erythritol Q3 vs Q1, male): 2.09
Adjusted HR, 3-year MACE ([1]; erythritol Q4 vs Q1, female): 2.27 (0.75-6.82)
Unadjusted HR, 3-year MACE ([1]; erythritol Q4 vs Q1, female): 3.77 (1.61-8.80)
Adjusted HR, 3-year MACE ([1]; erythritol Q4 vs Q1, male): 2.37
Unadjusted HR, 3-year MACE ([1]; erythritol Q4 vs Q1, male): 4.92
increase in the adjusted HR for MACE ([1]; per 1 μM increase in erythritol levels): 16%
Q4 vs. Q1 HR (95% CI), 3-year MACE ([1]; subgroup Age <70): 3.08 (1.22-7.78)
Q4 vs. Q1 HR (95% CI), 3-year MACE ([1]; subgroup Age ≥70): 3.49 (2.12-5.73)
Q4 vs. Q1 HR (95% CI), 3-year MACE ([1]; subgroup CAD): 4.22 (2.58-6.89)
Q4 vs. Q1 HR (95% CI), 3-year MACE ([1]; subgroup Diabetes): 5.16 (2.4-11.1)
Q4 vs. Q1 HR (95% CI), 3-year MACE ([1]; subgroup Female): 3.77 (1.61-8.80)
Q4 vs. Q1 HR (95% CI), 3-year MACE ([1]; subgroup GFR <60 ml/min/1.73 m^3): 5.25 (2.82-9.76)
Q4 vs. Q1 HR (95% CI), 3-year MACE ([1]; subgroup GFR ≥60 ml/min/1.73 m^3): 2.38 (1.32-4.31)
Q4 vs. Q1 HR (95% CI), 3-year MACE ([1]; subgroup HDL-c <40 mg/dL): 4.15 (1.91-8.99)
Q4 vs. Q1 HR (95% CI), 3-year MACE ([1]; subgroup HDL-c ≥40 mg/dL): 4.28 (2.4-7.62)
Q4 vs. Q1 HR (95% CI), 3-year MACE ([1]; subgroup HbA1C <5.7%): 2.13 (1.06-4.25)
Q4 vs. Q1 HR (95% CI), 3-year MACE ([1]; subgroup HbA1C ≥5.7%): 5.39 (2.96-9.81)
Q4 vs. Q1 HR (95% CI), 3-year MACE ([1]; subgroup Hypertension): 6.08 (1.31-28.1)
Q4 vs. Q1 HR (95% CI), 3-year MACE ([1]; subgroup LDL-c <100 mg/dL): 3.92 (2.25-6.83)
Q4 vs. Q1 HR (95% CI), 3-year MACE ([1]; subgroup LDL-c ≥100 mg/dL): 4.27 (1.94-9.37)
Q4 vs. Q1 HR (95% CI), 3-year MACE ([1]; subgroup Male): 4.92 (2.89-8.35)
Q4 vs. Q1 HR (95% CI), 3-year MACE ([1]; subgroup No CAD): 5.97 (1.75-20.4)
Q4 vs. Q1 HR (95% CI), 3-year MACE ([1]; subgroup No Diabetes): 2.96 (1.72-5.10)
Q4 vs. Q1 HR (95% CI), 3-year MACE ([1]; subgroup No Hypertension): 4.97 (3.05-8.09)
Q4 vs. Q1 HR (95% CI), 3-year MACE ([1]; subgroup No Prior MI): 3.48 (1.77-6.87)
Q4 vs. Q1 HR (95% CI), 3-year MACE ([1]; subgroup Prior MI): 4.69 (2.54-8.66)
Q4 vs. Q1 HR (95% CI), 3-year MACE ([1]; subgroup Triglycerides <150): 3.71 (1.93-7.14)
Q4 vs. Q1 HR (95% CI), 3-year MACE ([1]; subgroup Triglycerides ≥150): 3.85 (1.50-9.87)
